This note sets out measurements from the supplement of paper PMC11208160.
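Further: IS621 recombinase and bridge RNA in Escherichia coli cells.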

This data set can be described thus: recombinant barcode read abundance after kanamycin selection (control-corrected) (log10(CPM+1)); higher = more efficient recombination; sequences stand for … in AGTGCAGAGAAAATCGGCCAGTTTTCTCTGCCTGCAGTCCGCATGCCGT…AGATTTATGCAGCGGACTGCCTTTCTCCCAAAGTGATAAACCGGACAGTATCATGGACCGGTTTTCCCGGTAATCCGTATTTGCAAGGTTGGTTTCACT; site = the 11-nt target. As for the experimental part: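 Pooled E. coli target-specificity screen for the IS621 bridge recombinase. Each library plasmid pairs an 11-nt target (CT core) with a bridge RNA whose target-binding loop (9-nt LTG + 4-nt RTG) is reprogrammed; the rest of the 177-nt WT IS621 bridge RNA scaffold is fixed. The plasmid is co-electroporated with a WT donor plasmid; recombinase is induced with 0.1 mM IPTG and recombinants are selected on kanamycin. Recombinant barcodes are sequenced, converted to CPM, averaged over two biological replicates and corrected by the unselected control CPM. Molecule = full bridge RNA written as DNA: LTG = specificity nt 1-9, RTG = reverse complement of specificity nt 8-11, in the WT scaffold.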
In the case of “AGAAGTACTTGGGTTCTAACCTGTTGCGG (site GTAAGTACTCC)”, the “recombinant barcode read abundance (log10)” value came to 0.0235.

As for “AGAATATCTTGGGTTCTAACCTGTTGCCT (site AGAATATCTAG)”, the “recombinant barcode read abundance (log10)” value stood at 0.834.

“AGAATATCTTGGGTTCTAACCTGTTGCCT (site AGATTATCTAG)”: the “recombinant barcode read abundance (log10)” value turned out to be 0.193.

Take “AGACATCCTTGGGTTCTAACCTGTTGCTT (site AGACATCCTAA)”: the “recombinant barcode read abundance (log10)” value is 0.948.

Turning to “AGACATCCTTGGGTTCTAACCTGTTGCTT (site AGACCTCCTAA)”, the “recombinant barcode read abundance (log10)” value worked out at 0.0971.

Consider “AGACATCCTTGGGTTCTAACCTGTTGCTT (site AGACGTCCTAA)”, for which the “recombinant barcode read abundance (log10)” value stood at 0.0527.

For “AGACATCCTTGGGTTCTAACCTGTTGCTT (site AGACTTCCTAA)”, the “recombinant barcode read abundance (log10)” value is 0.195.

Regarding “AGACCACCTTGGGTTCTAACCTGTTGCCT (site AAACCACCTAG)”, the “recombinant barcode read abundance (log10)” value stood at 0.383.

On to “AGACCACCTTGGGTTCTAACCTGTTGCCT (site ACACCACCTAG)”, for which the “recombinant barcode read abundance (log10)” value worked out at 0.234.

For the sequence “AGACCACCTTGGGTTCTAACCTGTTGCCT (site AGACCACCTAG)”, the “recombinant barcode read abundance (log10)” value turned out to be 1.82.

As to “AGACCACCTTGGGTTCTAACCTGTTGCCT (site ATACCACCTAG)”, the “recombinant barcode read abundance (log10)” value came to 0.847.

In the case of “AGACGGACTTGGGTTCTAACCTGTTGCCA (site AGACGGACTTG)”, the “recombinant barcode read abundance (log10)” value is 1.68.

As to “AGACGGACTTGGGTTCTAACCTGTTGCCA (site CTTGCTCCTAT)”, the “recombinant barcode read abundance (log10)” value was 0.145.

“AGACTAGCTTGGGTTCTAACCTGTTGCGT (site AGACTAGCTAC)”: the “recombinant barcode read abundance (log10)” value came out at 2.51.

In the case of “AGACTAGCTTGGGTTCTAACCTGTTGCGT (site TTACTAGCTAC)”, the “recombinant barcode read abundance (log10)” value amounted to 0.255.

“AGACTCCCTTGGGTTCTAACCTGTTGCCT (site AGACTCCCTAG)”: the “recombinant barcode read abundance (log10)” value was found to be 1.22.

As to “AGACTCCCTTGGGTTCTAACCTGTTGCCT (site AGCCTCCCTAG)”, the “recombinant barcode read abundance (log10)” value came to 0.223.

On to “AGACTCCCTTGGGTTCTAACCTGTTGCCT (site AGGCTCCCTAG)”, for which the “recombinant barcode read abundance (log10)” value is 0.0602.

“AGACTCCCTTGGGTTCTAACCTGTTGCCT (site AGTCTCCCTAG)”: the “recombinant barcode read abundance (log10)” value was determined as 0.213.

On to “AGAGAACCTTGGGTTCTAACCTGTTGCCT (site AGAGAACCTAG)”, for which the “recombinant barcode read abundance (log10)” value turned out to be 2.33.

For “AGAGAACCTTGGGTTCTAACCTGTTGCCT (site CGAGAACCTAG)”, the “recombinant barcode read abundance (log10)” value is 0.415.

For the sequence “AGAGAACCTTGGGTTCTAACCTGTTGCCT (site GGAGAACCTAG)”, the “recombinant barcode read abundance (log10)” value is 0.219.

On to “AGAGAACCTTGGGTTCTAACCTGTTGCCT (site TGAGAACCTAG)”, for which the “recombinant barcode read abundance (log10)” value is 1.14.

As for “AGAGAATCTTGGGTTCTAACCTGTTGCCT (site AGAGAATCTAG)”, the “recombinant barcode read abundance (log10)” value is 1.28.

Consider “AGAGAATCTTGGGTTCTAACCTGTTGCCT (site AGCGAATCTAG)”, for which the “recombinant barcode read abundance (log10)” value worked out at 0.165.

Regarding “AGAGAATCTTGGGTTCTAACCTGTTGCCT (site AGGGAATCTAG)”, the “recombinant barcode read abundance (log10)” value turned out to be 0.13.

For “AGAGAATCTTGGGTTCTAACCTGTTGCCT (site AGTGAATCTAG)”, the “recombinant barcode read abundance (log10)” value is 0.196.

Regarding “AGAGATGCTTGGGTTCTAACCTGTTGCAG (site AGAGATGCTCT)”, the “recombinant barcode read abundance (log10)” value came to 1.8.

For the sequence “AGAGATGCTTGGGTTCTAACCTGTTGCAG (site AGAGGAGCTCT)”, the “recombinant barcode read abundance (log10)” value amounted to 0.289.

Regarding “AGAGCCACTTGGGTTCTAACCTGTTGCTA (site AGAGCCACTTA)”, the “recombinant barcode read abundance (log10)” value was 2.09.

Consider “AGAGCCACTTGGGTTCTAACCTGTTGCTA (site GCCATTCCTAT)”, for which the “recombinant barcode read abundance (log10)” value was 0.0124.

On to “AGAGGGTCTTGGGTTCTAACCTGTTGCTT (site AGAGGGTCTAA)”, for which the “recombinant barcode read abundance (log10)” value is 1.82.

“AGAGGGTCTTGGGTTCTAACCTGTTGCTT (site CGAGGGTCTAA)”: the “recombinant barcode read abundance (log10)” value is 0.186.

In the case of “AGAGGGTCTTGGGTTCTAACCTGTTGCTT (site GGAGGGTCTAA)”, the “recombinant barcode read abundance (log10)” value turned out to be 0.0269.

Turning to “AGAGGGTCTTGGGTTCTAACCTGTTGCTT (site TGAGGGTCTAA)”, the “recombinant barcode read abundance (log10)” value came out at 0.606.

As for “AGATCGGCTTGGGTTCTAACCTGTTGCCT (site AGATCGGCTAG)”, the “recombinant barcode read abundance (log10)” value turned out to be 0.377.

“AGATCGGCTTGGGTTCTAACCTGTTGCCT (site AGGTCGGCTAG)”: the “recombinant barcode read abundance (log10)” value stood at 0.0375.

As for “AGATTGACTTGGGTTCTAACCTGTTGCCA (site AGATTCACTAG)”, the “recombinant barcode read abundance (log10)” value worked out at 0.328.

On to “AGATTGACTTGGGTTCTAACCTGTTGCCA (site AGATTGACTTG)”, for which the “recombinant barcode read abundance (log10)” value was determined as 0.193.

In the case of “AGATTGCCTTGGGTTCTAACCTGTTGCCT (site AGATTGCCTAG)”, the “recombinant barcode read abundance (log10)” value amounted to 0.489.

“AGATTGCCTTGGGTTCTAACCTGTTGCCT (site TGATTTCCTAG)”: the “recombinant barcode read abundance (log10)” value was found to be 0.

As for “AGCAGAGCTTGGGTTCTAACCTGTTGCGG (site AGCAGAGCTCA)”, the “recombinant barcode read abundance (log10)” value was found to be 1.12.

Regarding “AGCAGAGCTTGGGTTCTAACCTGTTGCGG (site AGCAGAGCTCC)”, the “recombinant barcode read abundance (log10)” value came out at 1.95.

“AGCAGAGCTTGGGTTCTAACCTGTTGCGG (site AGCAGAGCTCG)”: the “recombinant barcode read abundance (log10)” value amounted to 0.0598.

On to “AGCAGAGCTTGGGTTCTAACCTGTTGCGG (site AGCAGAGCTCT)”, for which the “recombinant barcode read abundance (log10)” value was 1.1.

Consider “AGCAGCCCTTGGGTTCTAACCTGTTGCAG (site AGCAGCCCTCT)”, for which the “recombinant barcode read abundance (log10)” value was 1.72.

On to “AGCAGCCCTTGGGTTCTAACCTGTTGCAG (site GTTCCAGCTAG)”, for which the “recombinant barcode read abundance (log10)” value is 0.0963.

As for “AGCATAACTTGGGTTCTAACCTGTTGCCT (site AGCATAACTAG)”, the “recombinant barcode read abundance (log10)” value turned out to be 0.187.

With “AGCATAACTTGGGTTCTAACCTGTTGCCT (site AGGAGAACTAG)”, the “recombinant barcode read abundance (log10)” value is 0.261.

As for “AGCCACGCTTGGGTTCTAACCTGTTGCCT (site AGCCACACTAG)”, the “recombinant barcode read abundance (log10)” value was found to be 0.124.

Take “AGCCACGCTTGGGTTCTAACCTGTTGCCT (site AGCCACCCTAG)”: the “recombinant barcode read abundance (log10)” value was 0.27.

Take “AGCCACGCTTGGGTTCTAACCTGTTGCCT (site AGCCACGCTAG)”: the “recombinant barcode read abundance (log10)” value is 1.11.

With “AGCCACGCTTGGGTTCTAACCTGTTGCCT (site AGCCACTCTAG)”, the “recombinant barcode read abundance (log10)” value was determined as 0.153.

Consider “AGCCATCCTTGGGTTCTAACCTGTTGCAT (site AGCCATCCTAT)”, for which the “recombinant barcode read abundance (log10)” value stood at 0.723.

Consider “AGCCATCCTTGGGTTCTAACCTGTTGCAT (site TGCCATCCTAT)”, for which the “recombinant barcode read abundance (log10)” value was 0.0638.

For the sequence “AGCCCGCCTTGGGTTCTAACCTGTTGCCT (site AGCCCGCCTAG)”, the “recombinant barcode read abundance (log10)” value is 0.358.

Turning to “AGCCCGCCTTGGGTTCTAACCTGTTGCCT (site CGCCCGCCTAG)”, the “recombinant barcode read abundance (log10)” value turned out to be 0.39.

With “AGCCCGCCTTGGGTTCTAACCTGTTGCCT (site GGCCCGCCTAG)”, the “recombinant barcode read abundance (log10)” value worked out at 0.178.

On to “AGCCCGCCTTGGGTTCTAACCTGTTGCCT (site TGCCCGCCTAG)”, for which the “recombinant barcode read abundance (log10)” value was determined as 0.157.
